Test results taken from PubChem BioAssay (NCI).
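Test compounds were applied to cells in 96-well plates for 48 hours at 5 doses. Abbreviation: GI50, concentration required for 50% inhibition of growth. TGI denotes the concentration required for complete inhibition of growth.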

How the values were obtained:
Assay in all cases: NCI tumour cell line growth inhibition, 48 h
[1] = system: 786-0 renal
[2] = system: A549 NSCLC
[3] = system: ACHN renal
[4] = system: BT-549 breast
[5] = system: CAKI-1 renal
[6] = system: COLO 205 colon
[7] = system: DU-145 prostate
[8] = system: EKVX NSCLC
[9] = system: HCC-2998 colon
[10] = system: HCT-116 colon
[11] = system: HCT-15 colon
[12] = system: HOP-62 NSCLC
[13] = system: HOP-92 NSCLC
[14] = system: HT29 colon
[15] = system: IGROV1 ovarian
[16] = system: K-562 leukemia
[17] = system: KM12 colon
[18] = system: LOX IMVI melanoma
[19] = system: M14 melanoma
[20] = system: MALME-3M melanoma
[21] = system: MCF7 breast
[22] = system: MDA-MB-231 breast
[23] = system: MDA-MB-435
[24] = system: MOLT-4 leukemia
[25] = system: NCI-H226 lung
[26] = system: NCI-H23 lung
[27] = system: NCI-H460 lung
[28] = system: NCI/ADR-RES ovarian
[29] = system: OVCAR-3 ovarian
[30] = system: OVCAR-4 ovarian
[31] = system: OVCAR-5 ovarian
[32] = system: OVCAR-8 ovarian
[33] = system: PC-3 prostate
[34] = system: RPMI-8226 leukemia
[35] = system: SF-268 CNS
[36] = system: SF-539 CNS
[37] = system: SK-MEL-2 melanoma
[38] = system: SK-MEL-28 melanoma
[39] = system: SK-MEL-5 melanoma
[40] = system: SNB-19 CNS
[41] = system: SR leukemia
[42] = system: SW-620 colon
[43] = system: T-47D breast
[44] = system: TK-10 renal
[45] = system: U251 CNS
[46] = system: UACC-257 melanoma
[47] = system: UACC-62 melanoma
[48] = system: UO-31 renal
[49] = system: A498 renal
[50] = system: CCRF-CEM leukemia
[51] = system: HL-60(TB) leukemia
[52] = system: HS 578T breast
[53] = system: NCI-H522 lung
[54] = system: SK-OV-3 ovarian
[55] = system: SN12C renal
[56] = system: SNB-75 CNS
[57] = system: RXF 393 renal
[58] = system: SF-295 CNS

Structure (SMILES): N#Cc1nnc2ccccc2c1N
- TGI [1]: > 100 µM
- TGI [2]: > 100 µM
- TGI [3]: > 100 µM
- TGI [4]: > 100 µM
- TGI [5]: > 100 µM
- TGI [6]: > 100 µM
- TGI [7]: > 100 µM
- TGI [8]: > 100 µM
- TGI [9]: > 100 µM
- TGI [10]: > 100 µM
- TGI [11]: > 100 µM
- TGI [12]: > 100 µM
- TGI [13]: > 100 µM
- TGI [14]: > 100 µM
- TGI [15]: > 100 µM
- TGI [16]: > 100 µM
- TGI [17]: > 100 µM
- TGI [18]: > 100 µM
- TGI [19]: > 100 µM
- TGI [20]: > 100 µM
- TGI [21]: > 100 µM
- TGI [22]: > 100 µM
- TGI [23]: > 100 µM
- TGI [24]: > 100 µM
- TGI [25]: > 100 µM
- TGI [26]: > 100 µM
- TGI [27]: > 100 µM
- TGI [28]: > 100 µM
- TGI [29]: 26.4 µM
- TGI [30]: > 100 µM
- TGI [31]: > 100 µM
- TGI [32]: > 100 µM
- TGI [33]: > 100 µM
- TGI [34]: > 100 µM
- TGI [35]: > 100 µM
- TGI [36]: > 100 µM
- TGI [37]: > 100 µM
- TGI [38]: > 100 µM
- TGI [39]: > 100 µM
- TGI [40]: > 100 µM
- TGI [41]: > 100 µM
- TGI [42]: > 100 µM
- TGI [43]: > 100 µM
- TGI [44]: > 100 µM
- TGI [45]: > 100 µM
- TGI [46]: > 100 µM
- TGI [47]: > 100 µM
- TGI [48]: > 100 µM

Structure (SMILES): CC(C)OC(=O)Nc1ccc(-c2nc(-c3cccc(OCCN4CCOCC4)c3)c(-c3ccnc(Br)c3)[nH]2)cc1
- GI50 [1]: 1.24 µM
- TGI [1]: 3.54 µM
- GI50 [49]: 1.23 µM
- TGI [49]: 4.12 µM
- GI50 [2]: 3.49 µM
- TGI [2]: > 100 µM
- GI50 [3]: 3.22 µM
- TGI [3]: > 100 µM
- GI50 [4]: 2.86 µM
- TGI [4]: > 100 µM
- GI50 [5]: 2.85 µM
- TGI [5]: > 100 µM
- GI50 [50]: 2.46 µM
- TGI [50]: > 100 µM
- GI50 [7]: 4.8 µM
- TGI [7]: > 100 µM
- GI50 [8]: 2.39 µM
- TGI [8]: 7.55 µM
- GI50 [9]: 3.1 µM
- TGI [9]: > 100 µM
- GI50 [10]: 2.96 µM
- TGI [10]: > 100 µM
- GI50 [11]: 1.3 µM
- TGI [11]: 4.26 µM
- GI50 [51]: 1.87 µM
- TGI [51]: 4.59 µM
- GI50 [12]: 3.04 µM
- TGI [12]: > 100 µM
- GI50 [13]: 2.45 µM
- TGI [13]: 7.99 µM
- GI50 [52]: 0.461 µM
- TGI [52]: 2.76 µM
- GI50 [14]: 2.69 µM
- TGI [14]: > 100 µM
- GI50 [15]: 4.39 µM
- TGI [15]: > 100 µM
- GI50 [16]: 1.58 µM
- TGI [16]: > 100 µM
- GI50 [17]: 3.12 µM
- TGI [17]: > 100 µM
- GI50 [18]: 1.56 µM
- TGI [18]: 3.39 µM
- GI50 [19]: 2.78 µM
- TGI [19]: 11.7 µM
- GI50 [20]: 1.56 µM
- TGI [20]: 3.39 µM
- GI50 [22]: 3.54 µM
- TGI [22]: 56.7 µM
- GI50 [24]: 2.2 µM
- TGI [24]: > 100 µM
- GI50 [25]: 3.75 µM
- TGI [25]: > 100 µM
- GI50 [26]: 1.99 µM
- TGI [26]: 4.72 µM
- GI50 [27]: 3.63 µM
- TGI [27]: > 100 µM
- GI50 [53]: 3.86 µM
- TGI [53]: > 100 µM
- GI50 [28]: 4.3 µM
- TGI [28]: > 100 µM
- GI50 [29]: 4.91 µM
- TGI [29]: > 100 µM
- GI50 [30]: 4.79 µM
- TGI [30]: > 100 µM
- GI50 [31]: 4.97 µM
- TGI [31]: > 100 µM
- GI50 [32]: 4.32 µM
- TGI [32]: > 100 µM
- GI50 [33]: 2.96 µM
- TGI [33]: > 100 µM
- GI50 [34]: 0.549 µM
- TGI [34]: 2.91 µM
- GI50 [35]: 4.05 µM
- TGI [35]: > 100 µM
- GI50 [36]: 1.52 µM
- TGI [36]: 5.46 µM
- GI50 [37]: 2.87 µM
- TGI [37]: 9.13 µM
- GI50 [38]: 1.67 µM
- TGI [38]: 4.16 µM
- GI50 [39]: 1.79 µM
- TGI [39]: 3.27 µM
- GI50 [54]: 2.49 µM
- TGI [54]: 5.8 µM
- GI50 [55]: 4.29 µM
- TGI [55]: > 100 µM
- GI50 [40]: 3.22 µM
- TGI [40]: > 100 µM
- GI50 [56]: 0.611 µM
- TGI [56]: 5.17 µM
- GI50 [41]: 2.4 µM
- TGI [41]: > 100 µM
- GI50 [42]: 3.12 µM
- TGI [42]: > 100 µM
- GI50 [43]: 2.61 µM
- TGI [43]: > 100 µM
- GI50 [44]: 6.15 µM
- TGI [44]: > 100 µM
- GI50 [45]: 2.01 µM
- TGI [45]: > 100 µM
- GI50 [46]: 2.72 µM
- TGI [46]: 8.82 µM
- GI50 [47]: 2.31 µM
- TGI [47]: 6.28 µM
- GI50 [48]: 2.84 µM
- TGI [48]: > 100 µM

Structure (SMILES): CC1(C)C2CCC1(C)[C@H](O)[C@H]2Nc1cc(C(F)(F)F)cc(C(F)(F)F)c1 (stereo partly specified)
- TGI [1]: 12.2 µM
- TGI [49]: > 100 µM
- TGI [2]: 13.6 µM
- TGI [3]: > 100 µM
- TGI [4]: 8.31 µM
- TGI [5]: 13.1 µM
- TGI [6]: 3.28 µM
- TGI [7]: 12.1 µM
- TGI [8]: 12.5 µM
- TGI [9]: 9.8 µM
- TGI [10]: 8.17 µM
- TGI [11]: 12.6 µM
- TGI [12]: 17.7 µM
- TGI [14]: 12.5 µM
- TGI [15]: 11.5 µM
- TGI [16]: 7.72 µM
- TGI [17]: 10.7 µM
- TGI [18]: 10.4 µM
- TGI [19]: 15.6 µM
- TGI [20]: 9.12 µM
- TGI [21]: > 100 µM
- TGI [22]: 15.3 µM
- TGI [23]: 11.6 µM
- TGI [24]: 5.91 µM
- TGI [25]: 19.4 µM
- TGI [26]: 6.98 µM
- TGI [27]: 12 µM
- TGI [28]: 7.13 µM
- TGI [29]: 6.01 µM
- TGI [30]: 17.3 µM
- TGI [31]: 21.1 µM
- TGI [32]: 9.26 µM
- TGI [33]: 8.42 µM
- TGI [34]: 7.11 µM
- TGI [57]: 9.03 µM
- TGI [35]: 8.02 µM
- TGI [58]: 7.27 µM
- TGI [36]: 15.6 µM
- TGI [37]: 5.45 µM
- TGI [38]: 7.14 µM
- TGI [39]: 17.6 µM
- TGI [54]: 13.8 µM
- TGI [40]: 16.2 µM
- TGI [56]: 3.56 µM
- TGI [41]: 9.23 µM
- TGI [42]: 12 µM
- TGI [43]: 6.99 µM
- TGI [44]: 9.89 µM
- TGI [45]: 14.2 µM
- TGI [46]: 12.9 µM
- TGI [47]: > 100 µM
- TGI [48]: 12.7 µM
